Test system: patients with seasonal allergic rhinitis (SAR)
Assay: MP 428 study: individual symptom severity scores (runny nose, itchy nose, sneezing, congestion; 0-3 scale)
Type: in vivo, human
Conditions: Intent-to-Treat Population
Method: A two-week, randomized, double-blind study, which evaluated the effects of the co-administration of ASTELIN® (azelastine hydrochloride (HCl)) and FLONASE® (fluticasone propionate) compared to either product alone in patients with seasonal allergic rhinitis (SAR) was conducted during the 2006 Texas mountain cedar season. After a 5-day placebo lead-in period, 151 patients with moderate-to-severe allergic rhinitis symptoms were randomized to either: (1) (49 total patients) ASTELIN® (azelastine hydrochloride (HCl)) plus placebo saline nasal spray 2 sprays per nostril, 15 minutes apart, twice daily (AM & PM); (2) (50 total patients) FLONASE® (fluticasone propionate) plus placebo saline nasal spray, 2 sprays per nostril, 15 minutes apart, once daily (AM) and two sessions of placebo saline nasal spray, 2 sprays per nostril, 15 minutes apart (PM); or (3) (52 total patients) the co-administration of ASTELIN® (azelastine hydrochloride (HCl)) 2 sprays per nostril plus FLONASE® (fluticasone propionate) 2 sprays per nostril (AM), 15 minutes apart, and ASTELIN® (azelastine hydrochloride (HCl)) 2 sprays per nostril plus placebo saline nasal spray, 15 minutes apart, (PM) for a 2-week double-blind treatment period.
The primary efficacy variable was the change from baseline in the Total Nasal Symptom Score (TNSS), which comprised sneezing, itchy nose, runny nose, and nasal congestion (individual symptoms scores were assigned a value between 0 and 3, where 0=no symptoms and 3=severe symptoms). This study was not statistically designed to assess the differences between ASTELIN® and FLONASE®.
The results of the clinical trial are summarized and presented in Appendix A hereinbelow and in FIGS. 1-6. […] FIGS. 2-5 show the mean improvement in severity score (0-3 scale) from baseline for the symptoms of runny nose, itchy nose, sneezing and congestion, respectively.

What does the source list for CCC(=O)O[C@]1(C(=O)SCF)[C@H](C)C[C@H]2[C@@H]3C[C@H](F)C4=CC(=O)C=C[C@]4(C)[C@@]3(F)[C@@H](O)C[C@@]21C [Fluticasone, fluticasone propionate]?
Change from Baseline in AM and PM Combined Nasal Symptom Score: Congestion, LS Mean (Day 2): −0.59; Change from Baseline in AM and PM Combined Nasal Symptom Score: Congestion, Mean (Day 2): −0.65; Change from Baseline in AM and PM Combined Nasal Symptom Score: Congestion, Median (Day 2): −0.30; Change from Baseline in AM and PM Combined Nasal Symptom Score: Itchy Nose, LS Mean (Day 2): −0.61; Change from Baseline in AM and PM Combined Nasal Symptom Score: Itchy Nose, Mean (Day 2): −0.66; Change from Baseline in AM and PM Combined Nasal Symptom Score: Itchy Nose, Median (Day 2): −0.40; Change from Baseline in AM and PM Combined Nasal Symptom Score: Runny Nose, LS Mean (Day 2): −0.86; Change from Baseline in AM and PM Combined Nasal Symptom Score: Runny Nose, Mean (Day 2): −0.90; Change from Baseline in AM and PM Combined Nasal Symptom Score: Runny Nose, Median (Day 2): −1.00; Change from Baseline in AM and PM Combined Nasal Symptom Score: Sneezing, LS Mean (Day 2): −1.06; Change from Baseline in AM and PM Combined Nasal Symptom Score: Sneezing, Mean (Day 2): −1.03; Change from Baseline in AM and PM Combined Nasal Symptom Score: Sneezing, Median (Day 2): −1.00; Percent Change from Baseline in AM and PM Combined Nasal Symptom Score: Congestion, LS Mean (Day 2): −10.84%; Percent Change from Baseline in AM and PM Combined Nasal Symptom Score: Congestion, Mean (Day 2): −11.97%; Percent Change from Baseline in AM and PM Combined Nasal Symptom Score: Congestion, Median (Day 2): −5.66%; Percent Change from Baseline in AM and PM Combined Nasal Symptom Score: Itchy Nose, LS Mean (Day 2): −12.72%; Percent Change from Baseline in AM and PM Combined Nasal Symptom Score: Itchy Nose, Mean (Day 2): −14.27%; Percent Change from Baseline in AM and PM Combined Nasal Symptom Score: Itchy Nose, Median (Day 2): −8.39%; Percent Change from Baseline in AM and PM Combined Nasal Symptom Score: Runny Nose, LS Mean (Day 2): −12.11%; Percent Change from Baseline in AM and PM Combined Nasal Symptom Score: Runny Nose, Mean (Day 2): −12.95%; Percent Change from Baseline in AM and PM Combined Nasal Symptom Score: Runny Nose, Median (Day 2): −16.67%; Percent Change from Baseline in AM and PM Combined Nasal Symptom Score: Sneezing, LS Mean (Day 2): −22.64%; Percent Change from Baseline in AM and PM Combined Nasal Symptom Score: Sneezing, Mean (Day 2): −22.69%; Percent Change from Baseline in AM and PM Combined Nasal Symptom Score: Sneezing, Median (Day 2): −16.67%; Change from Baseline in AM and PM Combined Nasal Symptom Score: Congestion, LS Mean (Day 3): −0.81; Change from Baseline in AM and PM Combined Nasal Symptom Score: Congestion, Mean (Day 3): −0.90; Change from Baseline in AM and PM Combined Nasal Symptom Score: Congestion, Median (Day 3): −0.67; Change from Baseline in AM and PM Combined Nasal Symptom Score: Itchy Nose, LS Mean (Day 3): −0.99; Change from Baseline in AM and PM Combined Nasal Symptom Score: Itchy Nose, Mean (Day 3): −0.97; Change from Baseline in AM and PM Combined Nasal Symptom Score: Itchy Nose, Median (Day 3): −0.67; Change from Baseline in AM and PM Combined Nasal Symptom Score: Runny Nose, LS Mean (Day 3): −0.96; Change from Baseline in AM and PM Combined Nasal Symptom Score: Runny Nose, Mean (Day 3): −1.05; Change from Baseline in AM and PM Combined Nasal Symptom Score: Runny Nose, Median (Day 3): −0.80; Change from Baseline in AM and PM Combined Nasal Symptom Score: Sneezing, LS Mean (Day 3): −1.29; Change from Baseline in AM and PM Combined Nasal Symptom Score: Sneezing, Mean (Day 3): −1.21; Change from Baseline in AM and PM Combined Nasal Symptom Score: Sneezing, Median (Day 3): −1.00; Percent Change from Baseline in AM and PM Combined Nasal Symptom Score: Congestion, LS Mean (Day 3): −15.34%; Percent Change from Baseline in AM and PM Combined Nasal Symptom Score: Congestion, Mean (Day 3): −16.63%; Percent Change from Baseline in AM and PM Combined Nasal Symptom Score: Congestion, Median (Day 3): −11.76%; Percent Change from Baseline in AM and PM Combined Nasal Symptom Score: Itchy Nose, LS Mean (Day 3): −22.88%; Percent Change from Baseline in AM and PM Combined Nasal Symptom Score: Itchy Nose, Mean (Day 3): −22.41%; Percent Change from Baseline in AM and PM Combined Nasal Symptom Score: Itchy Nose, Median (Day 3): −15.32%; Percent Change from Baseline in AM and PM Combined Nasal Symptom Score: Runny Nose, LS Mean (Day 3): −17.15%; Percent Change from Baseline in AM and PM Combined Nasal Symptom Score: Runny Nose, Mean (Day 3): −18.81%; Percent Change from Baseline in AM and PM Combined Nasal Symptom Score: Runny Nose, Median (Day 3): −13.79%; Percent Change from Baseline in AM and PM Combined Nasal Symptom Score: Sneezing, LS Mean (Day 3): −29.62%; Percent Change from Baseline in AM and PM Combined Nasal Symptom Score: Sneezing, Mean (Day 3): −28.44%; Percent Change from Baseline in AM and PM Combined Nasal Symptom Score: Sneezing, Median (Day 3): −30.09%; Change from Baseline in AM and PM Combined Nasal Symptom Score: Congestion, LS Mean (Day 4): −1.00; Change from Baseline in AM and PM Combined Nasal Symptom Score: Congestion, Mean (Day 4): −1.06; Change from Baseline in AM and PM Combined Nasal Symptom Score: Congestion, Median (Day 4): −1.00; Change from Baseline in AM and PM Combined Nasal Symptom Score: Itchy Nose, LS Mean (Day 4): −0.98; Change from Baseline in AM and PM Combined Nasal Symptom Score: Itchy Nose, Mean (Day 4): −0.97; Change from Baseline in AM and PM Combined Nasal Symptom Score: Itchy Nose, Median (Day 4): −0.90; Change from Baseline in AM and PM Combined Nasal Symptom Score: Runny Nose, LS Mean (Day 4): −1.12; Change from Baseline in AM and PM Combined Nasal Symptom Score: Runny Nose, Mean (Day 4): −1.17; Change from Baseline in AM and PM Combined Nasal Symptom Score: Runny Nose, Median (Day 4): −1.15; Change from Baseline in AM and PM Combined Nasal Symptom Score: Sneezing, LS Mean (Day 4): −1.42; Change from Baseline in AM and PM Combined Nasal Symptom Score: Sneezing, Mean (Day 4): −1.33; Change from Baseline in AM and PM Combined Nasal Symptom Score: Sneezing, Median (Day 4): −1.10; Percent Change from Baseline in AM and PM Combined Nasal Symptom Score: Congestion, LS Mean (Day 4): −18.75%; Percent Change from Baseline in AM and PM Combined Nasal Symptom Score: Congestion, Mean (Day 4): −19.51%; Percent Change from Baseline in AM and PM Combined Nasal Symptom Score: Congestion, Median (Day 4): −16.67%; Percent Change from Baseline in AM and PM Combined Nasal Symptom Score: Itchy Nose, LS Mean (Day 4): −20.59%; Percent Change from Baseline in AM and PM Combined Nasal Symptom Score: Itchy Nose, Mean (Day 4): −20.31%; Percent Change from Baseline in AM and PM Combined Nasal Symptom Score: Itchy Nose, Median (Day 4): −16.67%; Percent Change from Baseline in AM and PM Combined Nasal Symptom Score: Runny Nose, LS Mean (Day 4): −17.17%; Percent Change from Baseline in AM and PM Combined Nasal Symptom Score: Runny Nose, Mean (Day 4): −18.21%; Percent Change from Baseline in AM and PM Combined Nasal Symptom Score: Runny Nose, Median (Day 4): −22.33%; Percent Change from Baseline in AM and PM Combined Nasal Symptom Score: Sneezing, LS Mean (Day 4): −31.80%; Percent Change from Baseline in AM and PM Combined Nasal Symptom Score: Sneezing, Mean (Day 4): −30.67%; Percent Change from Baseline in AM and PM Combined Nasal Symptom Score: Sneezing, Median (Day 4): −27.36%; Change from Baseline in AM and PM Combined Nasal Symptom Score: Congestion, LS Mean (Day 5): −1.00; Change from Baseline in AM and PM Combined Nasal Symptom Score: Congestion, Mean (Day 5): −1.06; Change from Baseline in AM and PM Combined Nasal Symptom Score: Congestion, Median (Day 5): −0.83; Change from Baseline in AM and PM Combined Nasal Symptom Score: Itchy Nose, LS Mean (Day 5): −1.16; Change from Baseline in AM and PM Combined Nasal Symptom Score: Itchy Nose, Mean (Day 5): −1.15; Change from Baseline in AM and PM Combined Nasal Symptom Score: Itchy Nose, Median (Day 5): −1.00; Change from Baseline in AM and PM Combined Nasal Symptom Score: Runny Nose, LS Mean (Day 5): −1.42; Change from Baseline in AM and PM Combined Nasal Symptom Score: Runny Nose, Mean (Day 5): −1.43; Change from Baseline in AM and PM Combined Nasal Symptom Score: Runny Nose, Median (Day 5): −1.05; Change from Baseline in AM and PM Combined Nasal Symptom Score: Sneezing, LS Mean (Day 5): −1.61; Change from Baseline in AM and PM Combined Nasal Symptom Score: Sneezing, Mean (Day 5): −1.52; Change from Baseline in AM and PM Combined Nasal Symptom Score: Sneezing, Median (Day 5): −1.33

From US8758816B2, “Compositions comprising azelastine and methods of use thereof” (priority 2004, dated 2014)
